For experiment [1], the target named is T1, human androgen receptor (Homo sapiens, UniProt P10275).
T1 construct: expressed in transfected cells
T1 sequence (P10275 1-920): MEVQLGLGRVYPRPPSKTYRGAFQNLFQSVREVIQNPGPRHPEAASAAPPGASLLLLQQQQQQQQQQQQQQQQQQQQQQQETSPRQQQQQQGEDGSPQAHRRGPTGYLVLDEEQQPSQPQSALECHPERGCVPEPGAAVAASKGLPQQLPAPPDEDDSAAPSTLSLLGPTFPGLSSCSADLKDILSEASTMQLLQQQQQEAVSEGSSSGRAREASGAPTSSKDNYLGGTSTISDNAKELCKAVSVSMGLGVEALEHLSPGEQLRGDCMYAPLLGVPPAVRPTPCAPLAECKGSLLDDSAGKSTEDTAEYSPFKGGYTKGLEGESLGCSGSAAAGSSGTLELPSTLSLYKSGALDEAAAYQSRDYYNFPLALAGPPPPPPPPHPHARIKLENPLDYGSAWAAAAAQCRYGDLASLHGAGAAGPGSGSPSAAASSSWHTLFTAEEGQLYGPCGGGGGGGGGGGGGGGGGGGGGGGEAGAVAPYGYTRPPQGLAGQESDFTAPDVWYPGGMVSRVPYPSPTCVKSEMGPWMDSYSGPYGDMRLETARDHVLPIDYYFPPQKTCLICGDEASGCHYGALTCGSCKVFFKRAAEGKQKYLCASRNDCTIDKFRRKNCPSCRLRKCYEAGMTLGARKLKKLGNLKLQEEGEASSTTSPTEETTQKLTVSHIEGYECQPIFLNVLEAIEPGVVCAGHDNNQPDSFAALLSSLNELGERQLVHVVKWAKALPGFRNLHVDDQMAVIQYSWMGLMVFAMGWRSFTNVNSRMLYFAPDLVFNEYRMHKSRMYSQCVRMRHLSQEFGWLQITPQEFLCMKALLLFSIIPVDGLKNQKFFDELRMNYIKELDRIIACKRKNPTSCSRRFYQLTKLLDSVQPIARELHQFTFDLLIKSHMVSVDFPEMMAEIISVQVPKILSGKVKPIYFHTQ
As to the kind of experiment: Measurement of agonist effect on androgen receptor (reporter gene assay, 11A11B2 cells). Conditions: compound concentration showing a transcription activity of 5% (0.1 nmol/L DHT = 100%, assay medium alone = 0%), 48 hours. It is filed as cell-based. The protocol: (§1) HeLa cells (purchased from Dai-Nippon Seiyaku K. K.) were cultured overnight in Dulbecco's Modified Eagle Medium containing no phenol red, but containing 3% charcoal-treated fetal bovine serum (hereafter referred to as DCC-FBS) (this medium is hereafter referred to as phenol-red-free DMEM). An MMTV-Luc-Hyg vector (reporter plasmid with mouse mammary tumor virus long terminal repeat, containing an androgen response element and a hygromycin resistance gene: a vector obtained by substituting a chloramphenicol acetyl transferease gene of a GM-CAT vector (A.T.C.C No. 67282) purchased from the A.T.C.C. with the firefly luciferase gene, and inserting a hygromycin resistance gene as a drug resistant gene), and pSG5-hAR-neo (human androgen receptor expression vector: a vector having an androgen receptor gene under the control of the SV40 promoter, and having a neomycin resistance gene inserted as a drug resistance gene) were transfected into the HeLa cells using an FuGENE™ 6 Transfection Reagent (obtained from Roche).
(§2) The clone cells thus obtained (11A11B2 cells) were maintained and propagated using DMEM containing 400 μg/mL neomycin, 200 μg/mL hygromycin and 10% FBS, and were propagated using phenol-red-free DMEM containing 10% DCC-FBS three to four days prior to the performance of an androgen receptor reporter gene assay.
The 11A11B2 cells were inoculated in a white clear-bottomed 96-well microplate (COSTAR) so that the cell concentration was 1.0×10^4/well, and were cultured overnight using phenol-red-free DMEM containing 3% DCC-FBS (hereafter referred to as the assay medium). Samples of the assay medium containing the compounds of the Examples and compounds of the Comparative Examples were added so that the final concentrations of the compounds of the Examples and compounds of the Comparative Examples were 1, 10, 100, 1,000 and 10,000 nmol/L), and the cells were cultured for 48 hours, after which the transcription activity value was measured. The transcription activity was measured using a Bright-Glo™ Luciferase Assay System (Promega).
The transcription activity rates of the compounds of the Examples were calculated from the transcription activity measured by the abovementioned method, with the transcription activity value obtained at 0.1 nmol/L DHT taken as 100%, and the transcription activity value in the case of the assay medium alone taken as 0%. The compound concentration showing a transcription activity of 5% (EC5 value) was calculated from a linear equation for two points on either side of 5%.

For experiment [2], the target named is T1, human androgen receptor. As to the kind of experiment: Investigation of antagonist effect on androgen receptor (reporter gene assay, 11A11B2 cells, with DHT). It is filed as cell-based. The protocol: as §1, §2
The 11A11B2 cells were inoculated in a white clear-bottomed 96-well microplate (COSTAR) so that the cell concentration was 1.0×10^4/well, and were cultured overnight. The assay medium containing DHT was added so that the final concentration of DHT was 0.1 nmol/L, and samples of the assay medium containing the compounds of the Examples or compounds of the Comparative Examples were added so that the final concentrations of the compounds of the Examples or compounds of the Comparative Examples were 1, 10, 100, 1,000 and 10,000 nmol/L, respectively. After culturing for 48, hours, the transcription activity values were measured. The transcription activity was measured using a Bright-Glo™ Luciferase Assay System (Promega).
The transcription activity rates of the compounds of the Examples were calculated from the transcription activity measured by the abovementioned method, with the transcription activity value obtained at 0.1 nmol/L DHT taken as 100%, and the transcription activity value in the case of the assay, medium alone taken as 0%.
(In a reporter assay the amount or activity of a reporter protein is the signal.)

The mark [3] stands for this setting: with 0.1 nmol/L DHT, transcription activity rate of Test Example 1 subtracted, 11A11B2 cells, 48 hours, read-out: IC50.

The structures appear in SMILES notation. Where two headings read alike, the source gives them in different places.

In the case of `CN1C(=S)N(c2ccc(C#N)c(C(F)(F)F)c2)C(=O)C1(C)C` [Comparative Example 1, 4-(5-oxo-2-thioxo-3,4,4-trimethyl-1-imidazolidinyl)-2-trifluoromethylbenzonitrile, reference compound], at human androgen receptor [1], the EC5 came out at 8e-05 µM.

`CC(=O)NCCN1C(=S)N(c2ccc(C#N)c(C(F)(F)F)c2)C(=O)C1(C)C` [Comparative Example 2, 4-[3′-(2″-N-acetylaminoethyl)-4′,4′-dimethyl-5′-oxo-2′-thioxo-1′-imidazolidinyl]-2-trifluoromethylbenzonitrile, reference compound] showed an EC5 at human androgen receptor [1] of 3 µM.

`CCOC(=O)N1CCC(N2C(=S)N(c3ccc(C#N)c(Cl)c3)C(=O)C2(C)C)CC1` [Example 2, 4-[3-(1-ethoxycarbonylpiperidin-4-yl)-4,4-dimethyl-5-oxo-2-thioxoimidazolidin-1-yl]-2-chlorobenzonitrile] showed an EC5 on human androgen receptor [1] of 8 µM. The IC50 (commonly the concentration that inhibits the measured activity by half) against human androgen receptor [2] is 80 nM.

`CC(=O)N1CCC(N2C(=S)N(c3ccc(C#N)c(C(F)(F)F)c3)C(=O)C2(C)C)CC1` [Example 4, 4-[3-(1-acetylpiperidin-4-yl)-4,4-dimethyl-5-oxo-2-thioxoimidazolidin-1-yl]-2-trifluoromethylbenzonitrile]: on human androgen receptor [1], the EC5 was greater than 10 µM. The 50% inhibitory concentration (IC50) at human androgen receptor [2] (setting [3]) is 300 nM.

For `CCS(=O)(=O)N1CCC(N2C(=S)N(c3ccc(C#N)c(C(F)(F)F)c3)C(=O)C2(C)C)CC1` [Example 5, 4-[3-(1-ethanesulfonylpiperidin-4-yl)-4,4-dimethyl-5-oxo-2-thioxoimidazolidin-1-yl]-2-trifluoromethylbenzonitrile], at human androgen receptor [1], the EC5 was greater than 10 µM. The same compound gave a concentration for half-maximal inhibition (IC50) against human androgen receptor [2] of 300 nM.

As to `CC(=O)N1CCC(N2C(=S)N(c3ccc(C#N)c(Cl)c3)C(=O)C2(C)C)CC1` [Example 6, 4-[3-(1-acetylpiperidin-4-yl)-4,4-dimethyl-5-oxo-2-thioxoimidazolidin-1-yl]-2-chlorobenzonitrile], the EC5 at human androgen receptor [1] is greater than 10 µM. This compound also displayed an IC50 at human androgen receptor [2] of 200 nM.

As for `CCC(=O)N1CCC(N2C(=S)N(c3ccc(C#N)c(Cl)c3)C(=O)C2(C)C)CC1` [Example 7, 4-[3-(1-propionylpiperidin-4-yl)-4,4-dimethyl-5-oxo-2-thioxoimidazolidin-1-yl]-2-chlorobenzonitrile], the EC5 at human androgen receptor [1] is greater than 10 µM. This compound also showed an IC50 on human androgen receptor [2] of 300 nM.

On human androgen receptor [1], `CCCS(=O)(=O)N1CCC(N2C(=S)N(c3ccc(C#N)c(Cl)c3)C(=O)C2(C)C)CC1` [Example 8, 4-[3-(1-propanesulfonylpiperidin-4-yl)-4,4-dimethyl-5-oxo-2-thioxoimidazolidin-1-yl]-2-chlorobenzonitrile] registered an EC5 greater than 10 µM. Further, it took 300 nM to reach half-maximal inhibition against human androgen receptor [2] (IC50).

For `CCS(=O)(=O)N1CCC(N2C(=S)N(c3ccc(C#N)c(Cl)c3)C(=O)C2(C)C)CC1` [Example 9, 4-[3-(1-ethanesulfonylpiperidin-4-yl)-4,4-dimethyl-5-oxo-2-thioxoimidazolidin-1-yl]-2-chlorobenzonitrile], the EC5 at human androgen receptor [1] was greater than 10 µM. The IC50 against human androgen receptor [2] was 300 nM.

Turning to `CCS(=O)(=O)N1CCC(N2C(=O)N(c3ccc(C#N)c(C(F)(F)F)c3C)C(=O)C2(C)C)CC1` [Example 10, 4-[3-(1-ethanesulfonylpiperidin-4-yl)-4,4-dimethyl-2,5-dioxoimidazolidin-1-yl]-2-trifluoromethyl-3-methylbenzonitrile], the EC5 on human androgen receptor [1] was greater than 10 µM. The IC50 on human androgen receptor [2] (setting [3]) turned out to be 600 nM.

`CCNC(=O)N1CCC(N2C(=S)N(c3ccc(C#N)c(C(F)(F)F)c3)C(=O)C2(C)C)CC1` [Example 38, 4-[3-(1-ethylaminocarbonylpiperidin-4-yl)-4,4-dimethyl-5-oxo-2-thioxoimidazolidin-1-yl]-2-trifluoromethylbenzonitrile] displayed an EC5 at human androgen receptor [1] greater than 10 µM.

For `CCNC(=O)N1CCC(N2C(=S)N(c3ccc(C#N)c(Cl)c3)C(=O)C2(C)C)CC1` [Example 40, 4-[3-(1-ethylaminocarbonylpiperidin-4-yl)-4,4-dimethyl-5-oxo-2-thioxoimidazolidin-1-yl]-2-chlorobenzonitrile], the EC5 at human androgen receptor [1] was greater than 10 µM.

Turning to `CCNS(=O)(=O)N1CCC(N2C(=S)N(c3ccc(C#N)c(C(F)(F)F)c3)C(=O)C2(C)C)CC1` [Example 42, 4-[3-(1-ethylaminosulfonylpiperidin-4-yl)-4,4-dimethyl-5-oxo-2-thioxoimidazolidin-1-yl]-2-trifluoromethylbenzonitrile], the IC50 at human androgen receptor [2] (setting [3]) came out at 700 nM.

In the case of `CC1(C)C(=O)N(c2ccc(C#N)c(C(F)(F)F)c2)C(=S)N1C1CCN(C(=O)OCC(O)CO)CC1` (centres unmarked) [Example 45, 4-[3-(4-cyano-3-trifluoromethylphenyl)-5,5-dimethyl-4-oxo-2-thioxoimidazolidin-1-yl]piperidine-1-carboxylic acid 2,3-dihydroxypropyl ester], at human androgen receptor [1], the EC5 was greater than 10 µM.

Take `COc1cc(N2C(=O)C(C)(C)N(c3ccc(Cl)c(NC(=O)OCC(O)CO)c3)C2=S)ccc1C#N` (centres unmarked) [Example 51, {2-chloro-5-[3-(4-cyano-3-methoxyphenyl)-5,5-dimethyl-4-oxo-2-thioxoimidazolidin-1-yl]phenyl}-carbamic acid 2,3-dihydroxypropyl ester]: the EC5 on human androgen receptor [1] was greater than 10 µM.

Take `CN(C)CCOC(=O)Nc1cc(N2C(=S)N(c3ccc(C#N)c(Cl)c3)C(=O)C2(C)C)ccc1Cl` [Example 53, {2-chloro-5-[3-(4-cyano-3-chlorophenyl)-5,5-dimethyl-4-oxo-2-thioxoimidazolidin-1-yl]phenyl}-carbamic acid 2-dimethylaminoethyl ester]: the EC5 on human androgen receptor [1] is greater than 10 µM.

`CC1(C)C(=O)N(c2ccc(C#N)c(Cl)c2)C(=S)N1c1ccc2sc(NC(=O)NCC(O)CO)nc2c1` (centres unmarked) [Example 62, 1-{5-[3-(3-chloro-4-cyanophenyl)-5,5-dimethyl-4-oxo-2-thioxoimidazolidin-1-yl]benzothiazol-2-yl}-3-(2,3-dihydroxypropyl)urea] came in with an EC5 on human androgen receptor [1] greater than 10 µM.

As for `CC1(C)C(=O)N(c2ccc(C#N)c(C(F)(F)F)c2)C(=S)N1c1ccc(Cl)c(NC(=O)CCC(N)=O)c1` [Example 67, N-{2-chloro-5-[3-(4-cyano-3-trifluoromethylphenyl)-5,5-dimethyl-4-oxo-2-thioxoimidazolidin-1-yl]phenyl}-succinamide], the EC5 on human androgen receptor [1] is greater than 10 µM.
